The results in this text go back to ChEMBL document CHEMBL4396925, “Malabaricone C as Natural Sphingomyelin Synthase Inhibitor against Diet-Induced Obesity and Its Lipid Metabolism in Mice” (ACS Med Chem Lett, 2019).

In data set [1] the target is T1, Phosphatidylcholine:ceramide cholinephosphotransferase 1 (Homo sapiens, UniProt Q86VZ5).
T1 sequence (Q86VZ5 whole entry): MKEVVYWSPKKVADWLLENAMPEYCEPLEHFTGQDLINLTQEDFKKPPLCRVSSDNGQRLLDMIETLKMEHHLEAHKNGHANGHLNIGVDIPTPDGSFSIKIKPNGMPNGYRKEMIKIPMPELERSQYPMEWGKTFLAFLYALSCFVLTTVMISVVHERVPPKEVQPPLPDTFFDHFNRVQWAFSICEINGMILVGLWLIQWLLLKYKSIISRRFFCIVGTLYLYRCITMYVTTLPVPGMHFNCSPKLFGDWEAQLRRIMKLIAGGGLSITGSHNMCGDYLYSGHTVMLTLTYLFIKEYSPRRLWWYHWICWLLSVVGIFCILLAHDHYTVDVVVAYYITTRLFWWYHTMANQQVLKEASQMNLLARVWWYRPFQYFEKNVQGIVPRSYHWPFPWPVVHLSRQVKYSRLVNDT
The data set is described as follows: Inhibition of SMS1 (unknown origin) stably expressed in mouse ZS cells using C6-NBD-ceramide as substrate preincubated for 30 mins followed by substrate addition and measured after 3 hrs by HPLC analysis. It counts as cell-based.

For data set [2], the target named is T2, Phosphatidylcholine:ceramide cholinephosphotransferase 2 (Homo sapiens, UniProt Q8NHU3).
T2 sequence (Q8NHU3 whole entry): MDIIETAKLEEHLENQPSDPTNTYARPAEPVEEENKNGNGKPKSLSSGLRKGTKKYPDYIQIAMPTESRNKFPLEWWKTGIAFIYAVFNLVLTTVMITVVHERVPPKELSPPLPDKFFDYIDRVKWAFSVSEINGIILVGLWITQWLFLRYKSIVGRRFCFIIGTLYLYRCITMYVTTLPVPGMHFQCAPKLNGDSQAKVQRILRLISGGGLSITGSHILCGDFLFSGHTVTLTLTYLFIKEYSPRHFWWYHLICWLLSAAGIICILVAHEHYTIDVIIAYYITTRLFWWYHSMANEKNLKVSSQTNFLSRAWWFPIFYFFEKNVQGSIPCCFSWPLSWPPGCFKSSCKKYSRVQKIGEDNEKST
The data set can be described thus: Inhibition of SMS2 (unknown origin) stably expressed in mouse ZS cells using C6-NBD-ceramide as substrate preincubated for 30 mins followed by substrate addition and measured after 3 hrs by HPLC analysis. It counts as cell-based.

In data set [3] the target is T2, Phosphatidylcholine:ceramide cholinephosphotransferase 2. The data set can be described thus: Noncompetitive inhibition of SMS2 (unknown origin) stably expressed in mouse ZS cells using 5 to 50 uM C6-NBD-ceramide as substrate preincubated for 30 mins followed by substrate addition and measured after 3 hrs by HPLC analysis. It is filed as cell-based.
For data set [4], the target named is T1, Phosphatidylcholine:ceramide cholinephosphotransferase 1. The data set can be described thus: Noncompetitive inhibition of SMS1 (unknown origin) stably expressed in mouse ZS cells using 5 to 50 uM C6-NBD-ceramide as substrate preincubated for 30 mins followed by substrate addition and measured after 3 hrs by HPLC analysis. It is filed as cell-based.
Data set [5] in a line: Toxicity in HFD-induced obese C57BL/6J mouse model assessed as effect on behavior measured over 2 months. The following applies: in vivo, 1461 h.
A short description of data set [6]: Toxicity in HFD-induced obese C57BL/6J mouse model assessed as effect on health measured over 2 months. The following applies: in vivo, 1461 h.
For data set [7], the species on record is Mus musculus. The data set can be described thus: Antiobesity activity in HFD-induced obese C57BL/6J mouse model assessed as decrease fat content in liver. It is filed as functional, organism-based.
Data set [8] addresses T3, Phosphatidylcholine:ceramide cholinephosphotransferase 1 (Mus musculus) (UniProt Q8VCQ6).
T3 sequence (whole entry): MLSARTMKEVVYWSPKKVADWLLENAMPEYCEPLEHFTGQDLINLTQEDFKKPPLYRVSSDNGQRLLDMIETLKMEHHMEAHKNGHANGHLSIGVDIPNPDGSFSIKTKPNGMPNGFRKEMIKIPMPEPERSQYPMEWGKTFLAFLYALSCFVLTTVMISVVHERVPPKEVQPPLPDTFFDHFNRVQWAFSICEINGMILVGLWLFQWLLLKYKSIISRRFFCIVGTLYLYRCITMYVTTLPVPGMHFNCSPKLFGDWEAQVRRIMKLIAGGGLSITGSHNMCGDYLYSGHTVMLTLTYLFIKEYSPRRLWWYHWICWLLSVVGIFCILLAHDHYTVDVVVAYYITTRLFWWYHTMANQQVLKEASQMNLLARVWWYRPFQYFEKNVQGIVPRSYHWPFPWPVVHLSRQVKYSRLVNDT
The data set is described as follows: Inhibition of SMS1 in HFD-induced obese C57BL/6J mouse liver tissue lysate using […] as substrate assessed as reduction in SM synthesis preincubated for 30 mins followed by substrate addition and measured after 3 hrs by HPLC analysis. It counts as subcellular.

Data set [9] can be described thus: Toxicity in HFD-induced obese C57BL/6J mouse model assessed as effect in daily food intake relative to control. Conditions: in vivo.
The subject of data set [10] is MEF. The data set is described as follows: Cytotoxicity against MEF cells at 0.01 to 1 mM incubated for 3 hrs by CCK8 assay relative to control. It counts as cell-based. The following applies: mouse, 1000 µM. Background: Formazan colour is commonly taken as a measure of viable cells.
The species entered for data set [11] is Mus musculus. The data set is described as follows: Antiobesity activity in HFD-induced obese C57BL/6J mouse model assessed as resistance in steatosis development in liver by oil red O-staining based histopathological analysis. It is filed as functional, organism-based.
Data set [12] is filed under the species Mus musculus. The data set is described as follows: Antiobesity activity in HFD-induced obese C57BL/6J mouse model assessed as decrease in liver weight relative to control. It is filed as functional, organism-based.
A short description of data set [13]: Toxicity in HFD-induced obese C57BL/6J mouse model assessed as induction of leaner phenotype measured over 2 months. Conditions: in vivo, 1461 h.
Data set [14] concerns HepG2. The data set can be described thus: Lipid lowering activity in human HepG2 cells assessed as reduction in oleic acid-induced intracellular TG accumulation by ELISA. It counts as functional, cell-based. On the technique in general: An ELISA detects its analyte on a solid surface through an enzyme-linked reagent.
The species named for data set [15] is Mus musculus. The data set can be described thus: Antiobesity activity in HFD-induced obese C57BL/6J mouse model assessed as reduction in TG level in liver by ELISA. It counts as functional, organism-based.
Data set [16] relates to Mus musculus. The data set can be described thus: Antiobesity activity in HFD-induced obese C57BL/6J mouse model assessed as increase in glucose tolerance administrated orally for 8 weeks and measured post treatment by OGTT assay. It counts as functional, organism-based.
Data set [17] concerns HepG2. The data set is described as follows: Lipid lowering activity in human HepG2 cells assessed as change in oleic acid-induced free fatty acid level by ELISA. It is filed as functional, cell-based.
The species entered for data set [18] is Mus musculus. The data set can be described thus: Antiobesity activity in HFD-induced obese C57BL/6J mouse model assessed as reduction in TG level in plasma by ELISA. It counts as functional, organism-based.
Data set [19] is filed under the species Mus musculus. The data set is described as follows: Antiobesity activity in HFD-induced obese C57BL/6J mouse model assessed as reduction in free fatty acid level in plasma by ELISA. It is filed as functional, organism-based.
Data set [20] relates to HepG2. The data set is described as follows: Lipid lowering activity in human HepG2 cells assessed as reduction in oleic acid-induced lipid droplet formation by nile red staining based fluorescence microscopic method. It counts as functional, cell-based.
For data set [21], the species on record is Mus musculus. The data set is described as follows: Antiobesity activity in HFD-induced obese C57BL/6J mouse model assessed as improved lipid metabolism by oil red O-staining based histopathological analysis. It is filed as functional, organism-based.
Data set [22] has as its target T4, Phosphatidylcholine:ceramide cholinephosphotransferase 2 (Mus musculus, UniProt Q9D4B1).
T4 sequence (Q9D4B1 whole entry): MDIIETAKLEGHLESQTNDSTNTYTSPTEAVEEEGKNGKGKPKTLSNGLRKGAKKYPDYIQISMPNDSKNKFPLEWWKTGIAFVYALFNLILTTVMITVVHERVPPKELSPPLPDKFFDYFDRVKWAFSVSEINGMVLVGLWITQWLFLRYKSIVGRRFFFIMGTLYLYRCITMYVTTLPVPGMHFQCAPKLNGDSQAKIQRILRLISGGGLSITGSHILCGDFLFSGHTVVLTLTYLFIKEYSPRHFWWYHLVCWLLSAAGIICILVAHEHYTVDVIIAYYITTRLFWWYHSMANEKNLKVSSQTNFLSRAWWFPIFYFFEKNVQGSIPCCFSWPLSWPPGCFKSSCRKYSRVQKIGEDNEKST
The data set can be described thus: Inhibition of SMS2 in MEF cells using C6-NBD-ceramide as substrate preincubated for 1 hr followed by substrate addition and measured after 1 hr by HPLC analysis. It is filed as cell-based.

The species entered for data set [23] is Mus musculus. The data set can be described thus: Antiobesity activity in HFD-induced obese C57BL/6J mouse model assessed as decrease in body weight measured after 20 days relative to control. Details: scale not given: the % may be the effect or the level left. It is filed as functional.
Data set [24] has as its target T5, Phosphatidylcholine:ceramide cholinephosphotransferase 2 (Mus musculus) (UniProt Q9D4B1).
T5 sequence (whole entry): T4 sequence (Q9D4B1 whole entry)
The data set can be described thus: Inhibition of SMS2 in HFD-induced obese C57BL/6J mouse liver tissue lysate using NBD-ceramide as substrate assessed as reduction in […] preincubated for 30 mins followed by substrate addition and measured after 3 hrs by HPLC analysis. It counts as subcellular.

The test system of data set [25] is HepG2. The data set can be described thus: Lipid lowering activity in human HepG2 cells assessed as prevention in oleic acid-induced CD36/FAT activation. It is filed as functional, cell-based.
Data set [26] concerns the target T6, Phosphatidylcholine:ceramide cholinephosphotransferase 1 (Mus musculus, UniProt Q8VCQ6).
T6 sequence (Q8VCQ6 whole entry): T3 sequence (whole entry)
The data set is described as follows: Inhibition of SMS1 in MEF cells using C6-NBD-ceramide as substrate preincubated for 1 hr followed by substrate addition and measured after 1 hr by HPLC analysis. It is filed as cell-based.

Calls of active or inactive are those of the source. No cut-off for these calls is given here.

Turning to `O=C(CCCCCCCCc1ccccc1)c1c(O)cccc1O` [MALABARICONE A], the IC50 in [1] is 4 µM; in [2], 4 µM; in data set [3] it was 1 to 3 µM; in [4], 2 to 3 µM.

Consider `O=C(CCCCCCCCc1ccc(O)cc1)c1c(O)cccc1O` [MALABARICONE B], for which the IC50 was 3.5 µM in [1], 2.5 µM in data set [2], 1 to 3 µM in data set [3] and 2 to 3 µM in [4].

Turning to `O=C(CCCCCCCCc1ccc(O)c(O)c1)c1c(O)cccc1O` [MALABARICONE C], the IC50 in data set [1] was 3 µM; in [2] it was 1.5 µM; in data set [3] it was 1 to 3 µM; in data set [22], 11 µM; in data set [4], 2 to 3 µM; in data set [26] it was 13 µM. Further, the Activity entry is “Non-Toxic” in [5]; “Non-Toxic” in [6]; “Non-Toxic” in data set [9]; 56 to 97% in [10]; “Toxic” in [13]; “Dose-dependent effect” in data set [14]. The Activity entry in data set [20] is “Dose-dependent effect”; in data set [23], 42.7%; in data set [25], “Dose-dependent effect”. In addition, the result in [7], in data set [11], in [12], in data set [15], in [16] and in [18] was Active. The result in data set [19] and in data set [21] was Active. The inhibition entry in data set [8] and in data set [24] was “Active” each time. In addition, the result in [17] was inactive.

For `O=C(CCCCCCCCc1ccc(O)cc1)c1c(O)cc(O)cc1O`, the IC50 in data set [1] was 6 µM; in [2] it was 4.5 µM.

One may read the IC50 as the concentration needed to halve the response being measured.
